Where two headings read alike, the source gives them in different places.
How the values were obtained:
rHsGSK-3 = assay: KinaseGlo Plus assay for inhibition of HsGSK-3; type: biochemical, human; conditions: for rHsGSK-3 Activity at 10 µM [%]: remaining activity, calculated on DMSO controls, Table 4
Method: A commercial luminescence-based kinase assay was used to investigate the enzymatic activity of kinases and to test potential kinase inhibitors. The KinaseGlo Plus assay (KinaseGlo Plus, Promega, Madison, WI, USA) provides a linear luminescence signal at ATP concentrations up to 100 μM and offers high signal stability. First, the kinase to be investigated and a corresponding substrate in the presence of ATP are used to perform the kinase reaction. During the substrate phosphorylation, ATP is consumed depending on the kinase activity. Subsequently, luminescence is generated by means of luciferase which is contained in the KinaseGlo Reagent. The intensity of the luminescence signal depends on the amount of ATP remaining in the reaction mixture. The luminescence […] to the enzymatic activity of the kinase. The following approach was used for the kinase reaction: rPfGSK-3 (see 3.4) or rHsGSK-3 (Promega, Madison, WI, USA) (20 ng), GS-1 substrate (Promega, Madison, WI, USA) (12 µg) and ATP (6 µg) (Ultra Pure, Promega, Madison, WI, USA) in 1× kinase reaction buffer (40 mM Tris-HCl pH 7.5, 20 mM MgCl2, 0.1 mg/mL BSA; final reaction volume 5 µL). The kinase reaction was performed for 30 min at 30 °C. The reaction mixture was then mixed with KinaseGlo Reagent (5 µL) and incubated for 10 min at room temperature. The mixture was transferred to a white 384-well plate (NUNC, ThermoFisher, Waltham, MA, USA) and the luminescence signal was measured in an EnVision Multilable Plate Reader (PerkinElmer, Waltham, MA, USA; integration time 0.5 sec/well). For the investigation, potential kinase inhibitors could be added directly to the kinase reaction. All kinase inhibitors were dissolved in DMSO. By appropriate pre-dilution of the inhibitors in kinase reaction buffer the final DMSO concentration in the kinase reaction was at most 1%. As negative control 1% DMSO without substance was measured. Since the luminescence signal is […] proportional to the ATP concentration, a control reaction (reaction without kinase) was measured simultaneously. The difference between kinase reaction and control reaction corresponds to the kinase activity. Using GraphPad Prism (version 6) the measured values were plotted and normalized to the DMSO control.

in vitro = type: cell-based, human; conditions: human, HEK293T Viability at 30 µM [%]
Method: (§1) Cytotoxic effects of test compounds on eukaryotic cells were investigated using a HEK293T cell viability assay. First, the cell density of a HEK293T culture was determined. […] The supernatant was then aspirated and fresh culture medium was added to 200 μL into which the test compounds were previously added. All substances were previously dissolved in DMSO. […] The viability of the cells was then examined by adding PrestoBlue® Cell Viability Agent (Invitrogen, Carlsbad, CA, USA). The supernatant was removed, 10% PrestoBlue® was added in preheated PBS and the culture was incubated for 30 min at 37 °C. In cells with an active metabolism, the PrestoBlue dye is reduced, causing it to fluorescence. The fluorescence (λex = 560 nm, λem = 590 nm) was measured in an EnVision Multilable Plate Reader (Perkin Elmer, Waltham, MA, USA; integration time 0.1 sec/well).

[1] = system: erythrocytic forms of P. falciparum (strain 3D7); assay: Viability screening of antiplasmodial activity (SYBR-gold DNA quantification, 96 h); type: cell-based, Plasmodium falciparum; conditions: for activity at 0.3 µM / activity at 3 µM: 96 h; for activity at 0.3 µM: read-out: Parasitemia (3D7) at 0.3 µM [%]; for activity at 3 µM: read-out: Parasitemia (3D7) at 3 µM [%]; for SI (Selectivity index for 3D7 erythrocytic forms versus HEK293 cells): 3D7 versus HEK293 cells
rPfGSK-3 = rPfGSK-3 (Plasmodium falciparum, UniProt O77344); assay: KinaseGlo Plus assay for inhibition of PfGSK-3; type: biochemical
Chain of rPfGSK-3 (O77344 entry or part of it): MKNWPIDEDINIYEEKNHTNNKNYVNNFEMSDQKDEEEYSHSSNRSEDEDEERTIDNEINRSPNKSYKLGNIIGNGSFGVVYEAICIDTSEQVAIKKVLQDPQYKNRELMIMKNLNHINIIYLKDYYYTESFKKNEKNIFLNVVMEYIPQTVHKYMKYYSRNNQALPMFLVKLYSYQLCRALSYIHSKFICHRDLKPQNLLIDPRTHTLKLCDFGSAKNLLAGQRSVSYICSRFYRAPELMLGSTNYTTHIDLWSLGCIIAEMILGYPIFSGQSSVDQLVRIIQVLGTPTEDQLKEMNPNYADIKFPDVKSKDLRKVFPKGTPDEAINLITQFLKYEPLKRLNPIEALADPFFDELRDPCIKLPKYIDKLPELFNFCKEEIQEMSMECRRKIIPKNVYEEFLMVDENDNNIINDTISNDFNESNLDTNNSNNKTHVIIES

HEK293T cells = assay: in vitro; type: cell-based, human; conditions: 30 µM
Method: as §1

[2] = Plasmodium falciparum, 0.3 µM, strain 3D7, calculated on DMSO controls
[3] = Plasmodium falciparum, 3 µM, strain 3D7, calculated on DMSO controls
[4] = read-out: rPfGSK-3 Activity at 10 µM [%], 10 µM, remaining activity, calculated on DMSO controls, Table 3
[5] = Plasmodium falciparum, 3D7, strain 3D7, erythrocytic forms
[6] = 10 µM, remaining activity, calculated on DMSO controls, Table 3, read-out: rPfGSK-3 Activity at 10 µM [%]

Structure (SMILES): CNC(=O)c1sc2nc(N)c(C#N)c(-c3cccc(C)c3)c2c1N [Compound 9j, 3,6-Diamino-5-cyano-N-methyl-4-(3-methylphenyl)thieno[2,3-b]pyridine-2-carboxamide]
- rHsGSK-3 Activity at 10 µM [%] (rHsGSK-3): 87.6 ± 7.4%
- viability at 48 h, 30 µM (in vitro): 67.2 ± 21.5%
- activity at 0.3 µM [1, 2]: 74.6 ± 28.6%
- activity at 3 µM [1, 3]: 108 ± 24.2%

Structure (SMILES): Nc1c(C(=O)Nc2ccc(F)cc2)sc2nc3c(c(-c4ccccc4)c12)CCC3 [Compound 17c, 3-Amino-N-(4-fluorophenyl)-4-phenyl-6,7-dihydro-5H-cyclopenta[b]thieno[3,2-e]pyridine-2-carboxamide]
- remaining activity at 10 µM (rPfGSK-3; [4]): 103 ± 6.2%
- HEK293T Viability at 30 µM [%] (HEK293T cells; human, 48 h): 72.4 ± 23.4%
- viability at 48 h, 30 µM (in vitro): 92.7 ± 11.7%
- SI (Selectivity index for 3D7 erythrocytic forms versus HEK293 cells) [1]: >100
- IC50 [1, 5]: 71.6 nM
- activity at 0.3 µM [1, 2]: 23.6 ± 16.5%
- activity at 3 µM [1, 3]: 9.9 ± 17.1%
- IC50 (3D7) [nM] ([1]; strain 3D7, erythrocytic forms): two-digit nanomolar range

Structure (SMILES): Cc1cccc(-c2c3c(nc4sc(C(=O)Nc5ccc(Cl)cc5)c(N)c24)CCCC3)c1 [Compound 17e, 3-Amino-N-(4-chlorophenyl)-4-(3-methylphenyl)-5,6,7,8-tetrahydrothieno[2,3-b]quinoline-2-carbox-amide]
- rPfGSK-3 Activity at 10 µM [%] (rPfGSK-3; 10 µM, remaining activity, calculated on DMSO controls, Table 3): 103.1 ± 10.7%
- HEK293T Viability at 30 µM [%] (HEK293T cells): 57.9 ± 20.6%
- Parasitemia (3D7) at 0.3 µM [%] ([1]; 0.3 µM, strain 3D7, calculated on DMSO controls): 5.0 ± 11.6%
- Parasitemia (3D7) at 3 µM [%] ([1]; 3 µM, strain 3D7, calculated on DMSO controls): 4.7 ± 13.5%

Structure (SMILES): Cc1cccc(-c2c(C#N)c(N)nc3sc(C(=O)NC4CC4)c(N)c23)c1 [Compound 9m, 3,6-Diamino-5-cyano-N-cyclopropyl-4-(3-methylphenyl)thieno[2,3-b]pyridine-2-carboxamide]
- rHsGSK-3 Activity at 10 µM [%] (rHsGSK-3): 93.8 ± 2.1%
- remaining activity at 10 µM (rPfGSK-3; [6]): < 40%
- viability at 48 h, 30 µM (in vitro): 74.3 ± 31.1%
- activity at 0.3 µM [1, 2]: 74.9 ± 15.7%
- activity at 3 µM [1, 3]: 88 ± 18.2%

Structure (SMILES): Cc1cccc(-c2c(C#N)c(N)nc3sc(C(=O)NCCN4CCOCC4)c(N)c23)c1 [Compound 9n, 3,6-Diamino-5-cyano-N-(2-morpholinoethyl)-4-(3-methylphenyl)thieno[2,3-b]pyridine-2-carboxamide]
- rHsGSK-3 Activity at 10 µM [%] (rHsGSK-3): 93.9 ± 3.2%
- remaining activity at 10 µM (rPfGSK-3; [6]): < 40%
- viability at 48 h, 30 µM (in vitro): 70.9 ± 23.6%
- activity at 0.3 µM [1, 2]: 58.7 ± 25.9%
- activity at 3 µM [1, 3]: 91.6 ± 19.2%

Structure (SMILES): N#Cc1c(N)nc2sc(C(=O)Nc3ccc(Cl)cc3)c(N)c2c1-c1ccccc1Cl [Compound 3]
- inhibition of human GSK-3 (in words) (rHsGSK-3): neither an inhibitor
- inhibition of plasmodial GSK-3 (in words) (rPfGSK-3): neither an inhibitor
- IC50 [1, 5]: 199 nM
- IC50 ([1]; strain 3D7, erythrocytic forms): 199 nM

Structure (SMILES): Nc1c(C(=O)Nc2ccc(Cl)cc2)sc2nc3c(c(-c4ccccc4)c12)CCC3 [Compound 17b, 3-Amino-N-(4-chlorophenyl)-4-phenyl-6,7-dihydro-5H-cyclopenta[b]thieno[3,2-e]pyridine-2-carboxamide]
- remaining activity at 10 µM (rPfGSK-3; [4]): 104 ± 15.5%
- HEK293T Viability at 30 µM [%] (HEK293T cells; human, 48 h): 89.0 ± 15.8%
- viability at 48 h, 30 µM (in vitro): 92.7 ± 11.7%
- SI (Selectivity index for 3D7 erythrocytic forms versus HEK293 cells) [1]: >100
- IC50 [1, 5]: 192 nM
- activity at 0.3 µM [1, 2]: 7.2 ± 11.3%
- activity at 3 µM [1, 3]: 7.7 ± 14.7%
